Source: the supplement of paper PMC10307832

What was measured:
Assay in all cases: relative viability (nuclei count vs DMSO), 5 days (fraction); higher = more cells survive
Mirin + Navitoclax = compound: N=C1NC(=O)/C(=C/c2ccc(O)cc2)S1 [Mirin] + CC1(C)CCC(c2ccc(Cl)cc2)=C(CN2CCN(c3ccc(C(=O)NS(=O)(=O)c4ccc(N[C@H](CCN5CCOCC5)CSc5ccccc5)c(S(=O)(=O)C(F)(F)F)c4)cc3)CC2)C1 [Navitoclax] (partner 0.5 µM)
Outline: (§1)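 Relative viability is defined as nuclei in treated wells over nuclei in vehicle wells. Duplicate plates were run and medians reported. Lung cancer cell lines in 1536-well plates were dosed by pin tool one day after seeding, with one drug or with a fixed anchor-drug dose plus five library-drug doses (not always all listed) in √10 steps, and nuclei were counted after 5 days.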

[1] = compound: CCn1c(-c2nonc2N)nc2cnc(Oc3cccc(NC(=O)c4ccc(OCCN5CCOCC5)cc4)c3)cc21 + Cc1cc(Nc2cc(N3CCN(C)CC3)nc(Sc3ccc(NC(=O)C4CC4)cc3)n2)n[nH]1 [Tozasertib] (partner 0.1 µM)
Outline: as §1

Mirin + AZD7762 = compound: N=C1NC(=O)/C(=C/c2ccc(O)cc2)S1 [Mirin] + NC(=O)Nc1cc(-c2cccc(F)c2)sc1C(=O)N[C@H]1CCCNC1 [AZD7762] (partner 0.2 µM)
Outline: as §1

[2] = compound: CCC1=CN=CN=C1N2CCN(CC2)CC3=NC4=C(N3)C=C(C=C4)C(F)(F)F + Cc1nc(NC(=O)N2CCC[C@H]2C(N)=O)sc1-c1ccnc(C(C)(C)C(F)(F)F)c1 [Alpelisib] (partner 2 µM)
Outline: as §1

Cell Line	relative viability (Mirin + Navitoclax; first compound 0.25 µM)	relative viability (Mirin + Navitoclax; first compound 0.7906 µM)	relative viability (Mirin + Navitoclax; first compound 2.5 µM)	relative viability (Mirin + Navitoclax; first compound 7.906 µM)	relative viability (Mirin + Navitoclax; first compound 25 µM)	relative viability ([1]; first compound 0.04 µM)	relative viability ([1]; first compound 0.1265 µM)	relative viability ([1]; first compound 0.4 µM)	relative viability ([1]; first compound 1.265 µM)	relative viability ([1]; first compound 4 µM)	relative viability (Mirin + AZD7762; first compound 0.25 µM)	relative viability (Mirin + AZD7762; first compound 0.7906 µM)	relative viability (Mirin + AZD7762; first compound 2.5 µM)	relative viability (Mirin + AZD7762; first compound 7.906 µM)	relative viability (Mirin + AZD7762; first compound 25 µM)	relative viability ([2]; first compound 0.04 µM)	relative viability ([2]; first compound 0.1265 µM)	relative viability ([2]; first compound 0.4 µM)	relative viability ([2]; first compound 1.265 µM)	relative viability ([2]; first compound 4 µM)
NCI-H838	1.19	1.24	1.31	1.19	1.11	0.259	0.277	0.237	0.196	0.174	0.984	1.05	0.907	0.915	1.06	1.1	0.963	0.971	0.994	0.986
HARA	1.07	1.21	1.14	1.28	1.2	0.11	0.0979	0.093	0.13	0.0876	0.257	–	0.47	0.423	0.353	0.858	0.744	0.816	0.651	0.812
NCI-H23	0.941	–	0.783	0.682	0.71	0.364	0.34	0.333	0.291	0.322	0.221	–	0.259	0.198	0.131	0.807	0.652	0.706	0.599	0.781
LCLC-97TM1	0.314	0.515	0.511	0.194	0.288	0.201	0.271	0.192	0.249	0.222	0.212	–	0.263	–	0.329	0.239	0.266	0.246	0.314	0.192
LC-2-ad	0.452	0.673	0.466	0.36	0.401	0.517	0.365	0.418	0.294	0.328	0.836	0.812	0.825	0.933	0.817	0.715	0.834	0.824	0.915	0.779
SW 1573	0.989	0.98	0.825	0.88	0.608	0.255	0.149	0.12	0.145	0.0839	–	–	–	–	–	0.591	0.646	0.745	0.579	0.687
EKVX	1.01	0.932	1.11	0.875	0.968	0.423	0.473	0.46	0.216	0.265	0.631	0.709	0.771	0.727	0.689	0.875	0.828	0.762	0.699	0.866
NCI-H2087	1.01	1.21	0.944	1.27	1.03	0.252	0.243	0.218	0.152	0.142	1.31	1.59	1.45	1.3	1.75	1.01	0.881	1.05	0.805	0.809
HCC-827	1.01	1	1	1.07	1.27	0.453	0.434	0.387	0.383	0.346	0.209	0.184	0.242	0.157	0.225	1	0.926	0.969	0.988	0.956
NCI-H661	–	–	–	–	–	0.377	0.367	0.37	0.372	0.266	–	–	–	–	–	0.561	0.512	0.506	–	0.57
CAL-12T	0.854	1.49	1.26	1.26	1.66	0.433	0.297	0.28	0.186	0.189	0.681	0.858	0.633	0.717	0.831	1.25	1.16	1.06	1.32	1.09
NCI-H2342	–	–	–	–	–	0.599	0.561	0.463	0.437	0.425	0.581	0.451	0.487	–	0.459	–	–	–	–	–
SW 900	–	–	–	–	–	0.625	0.706	0.637	0.488	0.431	0.67	0.669	0.669	0.518	0.641	–	–	–	–	–
IA-LM	0.835	0.899	0.705	0.498	0.752	–	–	–	–	–	–	–	–	–	–	0.805	0.752	0.668	0.766	0.748
EPLC-272H	1.08	–	1.09	0.965	0.808	0.152	0.394	0.26	0.306	0.223	0.239	–	0.23	0.227	0.161	0.795	0.85	0.813	0.979	0.981
A-427	0.942	–	0.955	0.941	1.11	0.189	0.234	0.228	0.182	0.186	0.772	0.879	0.701	0.737	0.636	1.08	1.08	0.99	0.986	0.791
NCI-H650	–	–	–	–	–	1.01	0.639	0.41	0.283	0.271	1.1	1.03	0.968	0.992	0.974	1.02	1.1	0.968	0.997	0.965
NCI-H1975	1.05	1.07	1.11	1.14	0.994	0.661	0.549	0.491	0.121	0.0969	0.699	0.91	0.689	0.729	0.725	0.641	0.633	0.605	0.61	0.527
NCI-H358	–	–	–	–	–	0.0993	0.102	0.116	0.0599	0.0812	0.584	0.569	0.528	0.442	0.369	0.892	0.836	0.833	0.853	0.747
